Patent publication US8178506B2, “Oligomeric compounds and compositions for use in modulation of small non-coding RNAs” (Regulus Therapeutics Inc., priority 2003, dated 2012)
In the oligonucleotide strings, read from the 5' end, every base follows the letter of its sugar. An asterisk marks phosphorothioate; unmarked linkages are phosphodiester. Other units and linkages are bracketed, terminal groups are in braces. A string of capitals states the bases alone. e = 2'-O-(2-methoxyethyl) (MOE); [5mC] = 5-methylcytosine

Experiments:
mir-15a miRNA = experiment: pGL3-mir-15a sensor luciferase assay in HeLa cells; assay type: cell-based, human; settings: for Relative luciferase activity: pGL3-mir-15a sensor-expressing HeLa cells
From the text: In order to assess the ability of miRNAs to bind predicted miRNA binding sites and regulate the expression of the luciferase reporter, in some embodiments, expression systems based on the pGL3-Control (Promega Corp., Madison Wis.) reporter vector and comprising either a mir-15a, mir-21, or a mir-23b miRNA binding site were developed and used in transient transfections of HeLa cells to determine whether the endogenous mir-15a, mir-21, or mir-23b miRNAs, respectively, could repress luciferase reporter gene expression.
The pGL3-mir-15a sensor plasmid was created by cloning the sequence ([…]; SEQ ID NO: 369), complementary to the mir-15a miRNA, into the Xba site of the pGL3-Control plasmid, placing the potential miRNA-binding site in the 3′UTR of the luciferase reporter. This reporter plasmid was used to transfect HeLa cells and it was observed that the endogenous mir-15a miRNA was able to inhibit luciferase expression from the pGL3-mir-15a sensor plasmid. Thus, to further evaluate the ability of the mir-15a miRNA to bind this target site encoded by the pGL3-mir-15a sensor plasmid, and to assess the ability of oligomeric compounds to interfere with mir-15a-mediated silencing, pGL3-mir-15a sensor-expressing HeLa cells were treated with varying concentrations (3-, 10- or 30 nM) of the following oligomeric compounds: ISIS Number 327951 (SEQ ID NO: 369) is a uniform 2′-MOE compound targeting the mature mir-15a-1 miRNA. ISIS Numbers 356213 (SEQ ID NO: 878), 356215 (SEQ ID NO: 879), 356216 (SEQ ID NO: 880), 356218 (SEQ ID NO: 881), 356221 (SEQ ID NO: 882), 356227 (SEQ ID NO: 883) and 356229 (SEQ ID NO: 884) are phosphorothioate, uniform 2′-MOE oligomeric compounds designed and synthesized to target the entire length of the mir-15a pri-miRNA molecule (described in detail in Example 28, below). […] The data presented in Table 42 are the average of three trials and are presented as percent untreated control (luciferase plasmid only, not treated with oligomeric compound) luciferase expression, normalized to pRL-CMV levels.

mir-15a pri-miRNA = mir-15a pri-miRNA expression in T47D cells (real-time RT-PCR); assay type: cell-based, human
From the text: The gapmer oligomeric compounds targeting the mir-15b and mir-15-a-1 mature miRNAs described above were also transfected into T47D cells according to standard procedures. In addition, uniform 2′-MOE and 2′-MOE gapmer oligomeric compounds targeting the mature mir-15a-1 and mir-15b miRNAs were also transfected into T47D cells, for analysis of their effects on mir-15a-1 and mir-15b pri-miRNA levels. The oligomeric compounds ISIS Number 327927 (SEQ ID NO: 345), a uniform 2′-MOE compound and ISIS Number 345391 (SEQ ID NO: 345), a 2′-MOE 5-10-7 gapmer compound, both target mir-15b. The oligomeric compounds ISIS Number 327951 (SEQ ID NO: 369), a uniform 2′-MOE compound, and ISIS Number 345411 (SEQ ID NO: 369), a 2′-MOE 5-10-7 gapmer compound, both target mir-15a-1. Oligomeric compounds ISIS Number 129686 ([…]; SEQ ID NO: 901), and ISIS Number 129691 ([…]; SEQ ID NO:902), both universal scrambled controls, as well as ISIS Number 116847 ([…]; SEQ ID NO: 844) targeting an unrelated gene, PTEN, were used as negative controls. ISIS Numbers 129686, 129691, and 116847 are phosphorothiated 2′-MOE 5-10-5 gapmers, and all cytosines are 5-methylcytosines. T47D cells (seeded in 12-well plates) were treated with these oligomeric compounds, and RNA was isolated from the treated cells by lysing in 1 mL TRIZOL™ (Invitrogen) and total RNA was prepared using the manufacturer's recommended protocols. To assess the effects of these compounds on expression of the mir-15a or mir-15b pri-miRNA molecules, real-time RT-PCR analysis was performed using either the primer/probe set specific for the mir-15a pri-miRNA molecule described above, or a primer probe set specific for the mir-15b pri-miRNA molecule: ISIS 339320 ([…]; SEQ ID NO: 903) was used as the forward primer for the mir-15b pri-miRNA, ISIS 339321 ([…] ACTGT; SEQ ID NO: 904) was used as the reverse primer for the mir-15b pri-miRNA, and ISIS 339322 ([…]; SEQ ID NO: 905) was used as the probe. Total RNA was quantified using RiboGreen™ RNA quantification reagent (Molecular Probes, Inc. Eugene, Oreg.), expression levels observed for each target were normalized to 5.8S rRNA, and values are expressed relative to the untreated control. Inhibition of expression of the mir15a or mir-15b pri-miRNA molecules upon treatment with these oligomeric compounds is was assessed and expressed as a percentage of RNA levels in untreated control cells.
Using the real-time RT-PCR methods described, the expression levels of the mir-15a pri-miRNA were compared in T47D cells treated with the nested series of uniform 2′-MOE oligomeric compounds, targeting and spanning the entire length of the mir-15a pri-miRNA. The region encompassing the mir-15a primary transcript (the complement of nucleotides 31603159 to 31603468 of GenBank Accession number NT—024524.13; AAATAATTATG […]) is incorporated herein as SEQ ID NO: 906. ISIS Number 356215 (SEQ ID NO: 879) targets a region flanking and immediately 5′ to the predicted 5′ Drosha cleavage site in the mir-15a pri-miRNA. ISIS Number 356218 (SEQ ID NO: 881) targets aregion in the loop of the mir-15a pri-miRNA. ISIS 356227 (SEQ ID NO: 883) targets a region flanking and immediately 3′ to the predicted 3′ Drosha cleavage site in the mir-15a pri-miRNA. Additionally, oligomeric compound ISIS 327951 (SEQ ID NO: 369), a uniform 2′-MOE compound targeting the mature mir-15a-1 miRNA, was tested for comparison. Oligomeric compounds ISIS 327901 (SEQ ID NO: 319) targeting the mature mir-143 miRNA; ISIS 129690, ([…]; SEQ ID NO: 907), a phosphorothioate 5-10-5 MOE gapmer used as a universal scrambled control; and ISIS 116847 ([…]; SEQ ID NO: 844), a uniform 5-10-52′-MOE gapmer targeting an unrelated gene, PTEN, were used as negative controls. Using the transfection methods previously described, T47D cells were treated with 100 nM of each of these oligomeric compounds. […]

Substance	Relative luciferase activity (mir-15a miRNA; 3 nM)	Relative luciferase activity (mir-15a miRNA; 10 nM)	Relative luciferase activity (mir-15a miRNA; 30 nM)	mir-15a pri-miRNA expression % UTC (mir-15a pri-miRNA; real-time RT-PCR)	luciferase activity from the pGL3-mir-15a sensor plasmid (mir-15a miRNA; HeLa, 3-, 10- or 30 nM)	levels of the mir-15a pri-miRNA molecule (mir-15a pri-miRNA; 100 nM)
356213 (eT*eA*eT*eA*eA*e[5mC]*eA*eT*eT*eG*eA*eT*eG*eT*eA*eA*eT*eA*eT*eG) [compound 356213]	101.2	80.5	109.9	171 % UTC	–	–
CACAAACCATTATGTGCTGCTA (chemistry not given here) [ISIS 327951, uniform 2′-MOE PS; targets mir-15a-1]	–	–	–	–	blocked the inhibitory effect of mir-15a	stimulate an increase in levels of the mir-15a pri-miRNA molecule
